From patent publication US20150374844A1, “NOVEL PH -SWITCHABLE PEPTIDES FOR MEMBRANE INSERTION AND PORE FORMATION” (UNIVERSITY OF PENNSYLVANIA, priority 2013, published 2015)
No end group written: not given here.

Assays:
[1] = system: Red Blood Cells (RBCs); assay: Human red blood cell hemolysis assay (hemoglobin release)
Description: Human Red Blood hemolysis assay was carried out as described below.
About 5 ml human blood from healthy individuals were transferred into a 50 ml centrifuge tube and either re-suspended in 35 ml buffer pH 5.4 (150 mM NaCl, 20 mM MES) or pH 7.5 (150 mM NaCl, 20 mM Hepes). Red Blood Cells (RBCs) were washed 3 times with the appropriate buffer and finally re-suspended in a total of 50 ml buffer (pH 5.4 or 7.5). For the assay 175 μl of buffer solution (pH 5.4 or 7.5) was added into each well of a clear-bottom 96-well plate followed by 50 μl of re-suspended RBCs (approx. 2.5×10^7 cells) in the appropriate buffer (for RBC transfer wide bore pipet tips were used to avoid cell damage). Test PSPF peptides (New England Peptide TM) at the appropriate concentration were diluted in 25 μl PBS and then added to the cells. All steps were done with chilled buffers and on ice. The suspension was then mixed 6-8 times by pipetting with wide bore tips, the plate was covered and incubated at 37° C. for indicated time.
After incubation the cells were centrifuged for 5 min at 500×g and 150 μl of the supernatant was transferred into a new 96-well clear-bottom plate. Absorbance at 541 nm was measured and hemolysis was normalized to RBCs which have been incubated in the presence of 1% Triton X-100 (100% hemolysis).
Red blood cell (RBC) lysis assays was used to screen the functional efficacy of the PSPF peptides upon delivery (Table 5). The release of ATP, miRNA and hemoglobin has been studied at both pH 7.5 and 5.4.
A desirable peptide should also negate membrane disruption, as assessed by leakage of proteins such as hemoglobin at both pH values. Therefore the peptides were first screened for hemolytic activity at both pH 7.5 and pH 5.4.

[2] = siRNA co-transfection assay, cell viability; format: cell-based; design: concentration or dose not given beside the values; details: co-transfection of peptide and siRNA
From the text: The protocol and siRNA reagent (target SSB gene) described in the following publication was followed: Bartz R, Fan H, Zhang J, Innocent N, Cherrin C, Beck S C, Pei Y, Momose A, Jadhav V, Tellers D M, Meng F, Crocker L S, Sepp-Lorenzino L, Barnett S F. Effective siRNA delivery and target mRNA degradation using an amphipathic peptide to facilitate pH-dependent endosomal escape. Biochem J. 2011; 435:475-87.

[3] = biological target: the molecule itself; assay: CD thermal denaturation of the hexamer, Gibbs-Helmholtz fit, pH 5.5
Description: (§1) Furthermore, thermal denaturation by circular dichroism (CD) was used to study the thermal stability of the PSPF-EKG hexamer at multiple concentrations (2 μM, 4 μM and 20 μM), and at both pH 7.4 (FIG. 8A) and pH 5.5 (FIG. 8B). For each pH, to the curves were analyzed according to the Gibbs-Helmholtz Equation, using global least squares fitting of ΔHm, Tm and baselines. Tm was chosen as a global parameter defined with a reference concentration of 4 μM. ΔCp was also included, but over the range of experimental data examed, this parameter was not well defined.

[4] = biological target: the molecule itself; assay: CD thermal denaturation of the hexamer, Gibbs-Helmholtz fit, pH 7.4
Description: as §1

[5] = biological target: the molecule itself; assay: size exclusion chromatography, self-association, pH 7.4 (Table 7 prints 6.6)
Description: Size exclusion chromatography (SEC) of 100 μM PSPF-EKG and 100 μM PSPF-DKG were measured by AKTA FPLC machine (GE) using a Superdex 75 column (GE) eluted at pH 7.4 (50 mM Tris, 150 mM NaCl) and pH 5.5 (50 mM MES, 150 mM NaCl) respectively, at 25° C. Four standards were used: blue dextran (2,000,000 g/mol), carbonic anhydrase (29,000 g/mol), cytochrome C (12,400 g/mol) and aprotinin (6,500 g/mol). In order to test the effect of salt concentration upon peptide elution, the elutions of PSPF-EKG were also measured at pH 7.4 (50 mM Tris, 2M NaCl) and pH 5.5 (50 mM MES, […]), respectively.
Size exclusion chromatography—The association state of the PSPF peptide PSPF-EKG was initially investigated by size exclusion chromatography (SEC) using a Superdex 75 column (GE Healthcare) eluted at pH 7.4 (150 mM NaCl, 50 mM Tris) and pH 5.5 (150 mM NaCl, 50 mM MES) respectively. In addition, PSPF-DKG was also investigated to determine the effect of substituting Asp for Glu on the stability of the water-soluble bundle at each pH. To determine the approximate oligomerization states, four standards were used, shown by blue eluting peaks in FIG. 4: blue dextran (2,000,000 g/mol), carbonic anhydrase (29,000 g/mol), cytochrome C (12,400 g/mol) and aprotinin (6,500 g/mol).

[6] = pH 5.4, compared to triton-x-100
[7] = pH 7.5, compared to triton-x-100

Molecule	Hemoglobin Release [1, 6]	Hemoglobin Release [1, 7]	viability [2]	Hemoglobin Release ([1]; pH 5.4)	Hemoglobin Release ([1]; pH 7.5)	[PSPF-EKG] at 50% fold and 300 K [3]	[PSPF-EKG] at 50% fold and 300 K [4]	apparent molecular weight, fold of calculated molecular weight [5]
WSDLAKALSDLAKALSDLAKALSDLAKA [PSPF-DKA, WSDLAKA LSDLAKA LSDLAKA LSDLAKA]	none	none	101%	–	–	–	–	–
WSDLAKGLSDLAKGLSDLAKGLSDLAKG [PSPF-DKG, WSDLAKG LSDLAKG LSDLAKG LSDLAKG]	none	none	104%	–	–	–	–	–
WSDLAQALSDLAQALSDLAQALSDLAQA [PSPF-DQA, WSDLAQA LSDLAQA LSDLAQA LSDLAQA]	none	none	100%	–	–	–	–	–
WSDLAQGLSDLAQGLSDLAQGLSDLAQG [PSPF-DQG, WSDLAQG LSDLAQG LSDLAQG LSDLAQG]	none	none	98%	–	–	–	–	–
WSELAKALSELAKALSELAKALSELAKA [PSPF-EKA, WSELAKA LSELAKA LSELAKA LSELAKA]	–	–	105%	none	none	–	–	–
WSELAKGLSELAKGLSELAKGLSELAKG [PSPF-EKG, WSELAKG LSELAKG LSELAKG LSELAKG]	–	–	102%	–	–	–	–	–
WSELAQALSELAQALSELAQALSELAQA [PSPF-EQA, WSELAQA LSELAQA LSELAQA LSELAQA]	–	–	103%	none	none	–	–	–
WSELAQGLSELAQGLSELAQGLSELAQG [PSPF-EQG, WSELAQG LSELAQG LSELAQG LSELAQG]	–	–	105%	none	none	–	–	–
WSHLAKALSHLAKALSHLAKALSHLAKA [PSPF-HKA, WSHLAKA LSHLAKA LSHLAKA LSHLAKA]	–	–	97%	none	none	–	–	–
WSHLAKGLSHLAKGLSHLAKGLSHLAKG [PSPF-HKG, WSHLAKG LSHLAKG LSHLAKG LSHLAKG]	–	–	102%	none	none	–	–	–
WSHLAQALSHLAQALSHLAQALSHLAQA [PSPF-HQA, WSHLAQA LSHLAQA LSHLAQA LSHLAQA]	–	–	105%	none	none	–	–	–
WSHLAQGLSHLAQGLSHLAQGLSHLAQG [PSPF-HQG, WSHLAQG LSHLAQG LSHLAQG LSHLAQG]	–	–	104%	none	none	–	–	–
WSELAKGLSELAKGLSELAKGLSELAKG [PSPF-EKG]	–	–	–	–	–	0.31 µM	0.14 µM	6.5 fold
